Source: US11209732B2, “Near infrared absorbing composition, film, infrared cut filter, solid image pickup element, infrared absorber, and compound” (FUJIFILM Corporation, priority 2015, dated 2021)

What was measured:
[1] = Absorption maximum of compound in chloroform solution; type: physicochemical; settings: absorbance at maximum 0.7 to 1.2
Procedure: The absorption maximum of the squarylium compound (1) is a value measured using a chloroform solution of the squarylium compound that is adjusted such that an absorbance at the absorption maximum is in a range of 0.7 to 1.2.
Each of the obtained compounds was dissolved in chloroform to prepare a solution having a concentration of 1 g/L. Next, the solution in which each of the compounds was dissolved was appropriately diluted such that an absorbance at an absorption maximum in an absorption spectrum thereof was in a range of 0.7 to 1.2, and the absorption maximum (λmax) thereof was measured using UV-1800 (manufactured by Shimadzu Corporation).

[2] = Solubility of compound in solvents at 25° C.; type: physicochemical; settings: for Solubility PGMEA: propylene glycol monomethyl ether acetate; for Solubility Cyclohexanone / Solubility in each of the solvents (in words): cyclohexanone; for Solubility in each of the solvents (in words): PGMEA; for Solubility Toluene / Solubility in each of the solvents (in words): toluene
Procedure: The solubility of each of the compounds in each of solvents (cyclohexanone, propylene glycol monomethyl ether acetate (PGMEA), toluene) at 25° C. was evaluated based on the following criteria.
A: the solubility of the compound in the solvent at 25° C. was 2 mass % or higher

Row | Compound | Absorption Maximum (nm) [1] [nm] | Solubility Cyclohexanone [2] | Solubility PGMEA [2] | Solubility Toluene [2] | Solubility in each of the solvents (in words) [2]
1 | CCCCCCC1=CC(=[N+](c2ccc3ccccc3c2)c2ccc3ccccc3c2)S/C1=C1\C(=O)C(c2sc(N(c3ccc4ccccc4c3)c3ccc4ccccc4c3)cc2CCCCCC)=C1[O-] [Compound 1] | 719 | A (the solubility of the compound in the solvent at 25 °C was 2 mass % or higher) | B (the solubility of the compound in the solvent at 25 °C was 1 mass % or higher and lower than 2 mass %) | A (the solubility of the compound in the solvent at 25 °C was 2 mass % or higher) | –
2 | O=C1C(c2sc(N(c3ccccc3)c3ccccc3)nc2-c2ccccc2)=C([O-])/C1=C1/SC(=[N+](c2ccccc2)c2ccccc2)N=C1c1ccccc1 [Compound R-1, reference compound] | 687 | C (the solubility of the compound in the solvent at 25 °C was 0.5 mass % or higher and lower than 1 mass %) | D (the solubility of the compound in the solvent at 25 °C was lower than 0.5 mass %) | C (the solubility of the compound in the solvent at 25 °C was 0.5 mass % or higher and lower than 1 mass %) | insufficient
3 | CCCCc1ccc(N(c2ccc(CCCC)cc2)c2ccc(C3=C([O-])/C(=C4\C=CC(=[N+](c5ccc(CCCC)cc5)c5ccc(CCCC)cc5)S4)C3=O)s2)cc1 [Compound R-3, reference compound] | 704 | B (the solubility of the compound in the solvent at 25 °C was 1 mass % or higher and lower than 2 mass %) | D (the solubility of the compound in the solvent at 25 °C was lower than 0.5 mass %) | B (the solubility of the compound in the solvent at 25 °C was 1 mass % or higher and lower than 2 mass %) | insufficient
4 | CCCCCCCCc1ccc(N(c2ccc(CCCCCCCC)cc2)c2cc3sc(C4=C([O-])/C(=c5\cc6c(s5)=CC(=[N+](c5ccc(CCCCCCCC)cc5)c5ccc(CCCCCCCC)cc5)S6)C4=O)cc3s2)cc1 [Compound 2] | 770 | A (the solubility of the compound in the solvent at 25 °C was 2 mass % or higher) | B (the solubility of the compound in the solvent at 25 °C was 1 mass % or higher and lower than 2 mass %) | B (the solubility of the compound in the solvent at 25 °C was 1 mass % or higher and lower than 2 mass %) | –
5 | CCCCCCCCc1ccc(N(c2ccc(CCCCCCCC)cc2)c2ccc(/C=C/c3ccc(C4=C([O-])/C(=c5\cc/c(=C\C=C6/C=CC(=[N+](c7ccc(CCCCCCCC)cc7)c7ccc(CCCCCCCC)cc7)S6)s5)C4=O)s3)s2)cc1 [Compound 4] | 860 | A (the solubility of the compound in the solvent at 25 °C was 2 mass % or higher) | B (the solubility of the compound in the solvent at 25 °C was 1 mass % or higher and lower than 2 mass %) | B (the solubility of the compound in the solvent at 25 °C was 1 mass % or higher and lower than 2 mass %) | –
6 | CCCCCCc1cc(-c2ccc(N(c3ccc(C)cc3)c3ccc(C)cc3)s2)sc1C1=C([O-])/C(=c2/s/c(=C3\C=CC(=[N+](c4ccc(C)cc4)c4ccc(C)cc4)S3)cc2CCCCCC)C1=O [Compound 5] | – | A (the solubility of the compound in the solvent at 25 °C was 2 mass % or higher) | B (the solubility of the compound in the solvent at 25 °C was 1 mass % or higher and lower than 2 mass %) | A (the solubility of the compound in the solvent at 25 °C was 2 mass % or higher) | –
7 | CCCCCCCCCCCCN(c1ccccc1)c1ccc(C2=C([O-])/C(=C3C=C/C(=[N+](\CCCCCCCCCCCC)CCNS(=O)(=O)CCCC)C=C/3O)C2=O)s1 [Compound R-2, reference compound] | 653 | A (the solubility of the compound in the solvent at 25 °C was 2 mass % or higher) | A (the solubility of the compound in the solvent at 25 °C was 2 mass % or higher) | A (the solubility of the compound in the solvent at 25 °C was 2 mass % or higher) | –
